Measurements as given in patent publication US10934302B1, “SHP2 phosphatase inhibitors and methods of use thereof” (Relay Therapeutics, Inc., priority 2018, dated 2021).

Target: SHP2 (Homo sapiens (Human), UniProt Q06124)
Assay: SHP2 allosteric inhibition assay (DiFMUP prompt fluorescence)
Type: biochemical
Conditions: 0.25 nM SHP2 activated with 0.5 μM peptide IRS1_pY1172(dPEG8)pY1222; substrate DiFMUP

Row | Structure (SMILES) | IC50 [nM]
1 | N[C@H]1c2ccccc2C[C@]12CC[C@@H](c1cnc(Sc3ccnc(Cl)c3Cl)cn1)CC2 (single isomer, unassigned) [Example 277, (1r, 4r)-4-(5-((2,3-dichloropyridin-4-yl)thio)pyrazin-2-yl)-1′,3′-dihydrospiro[cyclohexane-1,2′-inden]-1′-amine] | 50 to 1000
2 | NC1c2ccccc2C[C@]12CC[C@H](c1ccc(SCC3CC3)nc1)CC2 (single isomer, unassigned) [Example 281, (1s, 3'S, 4R)-4-{6-[(cyclopropylmethyl)sulfanyl]pyridin-3-yl}-1′,3′-dihydrospiro[cyclohexane-1,2′-inden]-3′-amine] | 50 to 1000
3 | NC1c2ccccc2CC12CCC(c1cnc(SCC3CC3)cn1)CC2 (single isomer, unassigned) [Example 283, (1s, 3'S, 4R)-4-{5-[(cyclopropylmethyl)sulfanyl]pyrazin-2-yl}-1′,3′-dihydrospiro[cyclohexane-1,2′-inden]-3′-amine] | > 10000
4 | C[C@@H](C(=O)N1CCC2(CC1)Cc1ccccc1[C@H]2N)c1ccc(F)cc1 (single isomer, unassigned) [Example 291] | > 10000
5 | N[C@H]1c2cccc(F)c2CC12CCN(c1cnc3c(N4CCCc5ncccc54)n[nH]c3n1)CC2 [Example 16] | 1000 to 10000
6 | N[C@@H]1c2cccc(F)c2CC12CCN(c1cnc3cn[nH]c3n1)CC2 [Example 23] | 1000 to 10000
7 | Cn1cc(-c2ccc3c(n2)CCCN3c2n[nH]c3nc(N4CCC5(CC4)Cc4ccc(F)cc4[C@H]5N)cnc23)cn1 [Example 40] | > 10000
8 | CN1CCN(c2n[nH]c3nc(N4CCC5(CC4)Cc4ccccc4[C@H]5N)cnc23)c2ccc(C#N)cc21 [Example 43] | ≤ 50
9 | NC1c2ncccc2CC12CCN(c1cnc3c(N4CCCc5ncccc54)n[nH]c3n1)CC2 (stereo not drawn) [Example 45] | ≤ 50
10 | Cn1cc(-c2ccc3c(n2)CCCN3c2n[nH]c3nc(N4CCC5(CC4)Cc4cccnc4C5N)cnc23)cn1 (stereo not drawn) [Example 46] | ≤ 50
11 | Cn1cc(-c2ccc3c(n2)CCCN3c2n[nH]c3nc(N4CCC5(CC4)Cc4cccc(F)c4[C@H]5N)cnc23)cn1 [Example 48] | ≤ 50
12 | N[C@@H]1c2cnccc2CC12CCN(c1cnc3c(N4CCCc5ncccc54)n[nH]c3n1)CC2 [Example 50] | ≤ 50
13 | Cn1ccc2c(c1=O)CCCN2c1n[nH]c2nc(N3CCC4(CC3)Cc3cc(F)ccc3[C@H]4N)cnc12 [Example 52] | ≤ 50
14 | Cn1ccc2c(c1=O)CCCN2c1n[nH]c2nc(N3CCC4(CC3)Cc3c(F)cccc3[C@H]4N)cnc12 [Example 53] | ≤ 50
15 | N[C@@H]1c2cccc(F)c2OC12CCN(c1cnc3c(N4CCCc5ncccc54)n[nH]c3n1)CC2 [Example 54] | ≤ 50
16 | Cn1ccc2c(c1=O)CCCN2c1n[nH]c2nc(N3CCC4(CC3)Oc3c(F)cccc3[C@H]4N)cnc12 [Example 55] | ≤ 50
17 | CS(=O)(=O)c1cccc2c1CCCN2c1n[nH]c2nc(N3CCC4(CC3)Cc3c(F)cccc3[C@H]4N)cnc12 [Example 56] | ≤ 50

Row | Structure (SMILES) | IC50 [nM]
18 | Cn1ccc2c(c1=O)CCCN2c1n[nH]c2nc(N3CCC4(CC3)Oc3ccccc3[C@H]4N)cnc12 [Example 57] | ≤ 50
19 | Cn1ccc2c(c1=O)CCCN2c1n[nH]c2nc(N3CCC4(CC3)Cc3ccc(F)cc3[C@H]4N)cnc12 [Example 58] | ≤ 50
20 | CS(=O)(=O)c1cccc2c1CCCN2c1n[nH]c2nc(N3CCC4(CC3)Cc3cccc(F)c3[C@H]4N)cnc12 [Example 59] | ≤ 50
21 | Cn1cc(-c2ccc3c(n2)CCCN3c2n[nH]c3nc(N4CCC5(CC4)Oc4ccccc4[C@H]5N)cnc23)cn1 [Example 60] | ≤ 50
22 | N[C@@H]1c2ccccc2OC12CCN(c1cnc3c(N4CCCc5nc(-c6ncco6)ccc54)n[nH]c3n1)CC2 [Example 61] | ≤ 50
23 | N[C@H]1c2c(F)ccc(F)c2CC12CCN(c1cnc3c(N4CCCc5ncccc54)n[nH]c3n1)CC2 [Example 62] | ≤ 50
24 | Nc1nccc(Sc2cnc(N3CCC4(CC3)Cc3ccccc3[C@H]4N)cn2)c1Cl [Example 63] | 50 to 1000
25 | N[C@@H]1c2ccccc2OC12CCN(c1cnc(Oc3ccnc(Cl)c3Cl)cn1)CC2 [Example 64] | ≤ 50
26 | N[C@@H]1c2ccccc2CC12CCN(c1cnc3c(N4CCCc5cc(OS(=O)(=O)F)ccc54)n[nH]c3n1)CC2 [Example 65, 1-{6-[(3S)-3-amino-1,3-dihydrospiro[indene-2,4′-piperidin]-1′-yl]-1H-pyrazolo[3,4-b]pyrazin-3-yl}-1,2,3,4-tetrahydroquinolin-6-yl sulfurofluoridate] | ≤ 50
27 | N[C@@H]1c2ccccc2CC12CCN(c1cnc3c(-c4ccnc(Cl)c4F)n[nH]c3n1)CC2 [Example 67, (3S)-1′-[3-(2-chloro-3-fluoropyridin-4-yl)-1H-pyrazolo[3,4-b]pyrazin-6-yl]-1,3-dihydrospiro[indene-2,4′-piperidin]-3-amine] | ≤ 50
28 | N[C@@H]1c2ccccc2CC12CCN(c1cnc3c(-c4cccc5ncccc45)n[nH]c3n1)CC2 [Example 68] | ≤ 50
29 | N[C@H]1c2ccccc2CC12CCN(c1cnc3c(-c4cccc5ncccc45)n[nH]c3n1)CC2 [Example 69] | ≤ 50
30 | N[C@@H]1c2ccccc2CC12CCN(c1cnc3c(-c4ccnc(Cl)c4Cl)n[nH]c3n1)CC2 [Example 70] | 50 to 1000
31 | N[C@H]1c2ccccc2CC12CCN(c1cnc3c(-c4ccnc(Cl)c4Cl)n[nH]c3n1)CC2 [Example 71] | ≤ 50
32 | N[C@@H]1c2ccccc2CC12CCN(c1cnc3c(-c4cc5cc[nH]c5cc4F)n[nH]c3n1)CC2 [Example 72] | ≤ 50
33 | N[C@H]1c2ccccc2CC12CCN(c1cnc3c(-c4cc5cc[nH]c5cc4F)n[nH]c3n1)CC2 [Example 73] | ≤ 50

Further lines, results first:

Row | IC50 [nM] | Structure (SMILES)
34 | ≤ 50 | NC1c2ccccc2C[C@]12CC[C@H](c1ccc(SCC3CC3)nc1)CC2 (single isomer, unassigned) [Example 282, (1s, 3′R, 4S)-4-{6-[(cyclopropylmethyl)sulfanyl]pyridin-3-yl}-1′,3′-dihydrospiro[cyclohexane-1,2′-inden]-3′-amine]
35 | ≤ 50 | N[C@@H]1c2ccccc2CC12CCN(c1cnc(N3CCCC3c3ccccc3)cn1)CC2 (stereo in doubt) [Example 164, (3S)-1′-{5-[(2S)-2-phenylpyrrolidin-1-yl]pyrazin-2-yl}-1,3-dihydrospiro[indene-2,4′-piperidin]-3-amine]
36 | ≤ 50 | CC(=O)N1CCN(c2n[nH]c3nc(N4CCC5(CC4)Cc4ccccc4[C@@H]5N)cnc23)c2ccccc21 [Example 1, 1-(4-{6-[(3R)-3-amino-1,3-dihydrospiro[indene-2,4′-piperidin]-1′-yl]-1H-pyrazolo[3,4-b]pyrazin-3-yl}-1,2,3,4-tetrahydroquinoxalin-1-yl)ethan-1-one]
37 | ≤ 50 | CC(=O)N1CCN(c2n[nH]c3nc(N4CCC5(CC4)Cc4ccccc4[C@H]5N)cnc23)c2ccccc21 [Example 2, 1-(4-{6-[(3S)-3-amino-1,3-dihydrospiro[indene-2,4′-piperidin]-1′-yl]-1H-pyrazolo[3,4-b]pyrazin-3-yl}-1,2,3,4-tetrahydroquinoxalin-1-yl)ethan-1-one]
38 | ≤ 50 | N[C@H]1c2ccccc2CC12CCN(c1cnc3c(N4CCCc5nc(-c6ccn[nH]6)ccc54)n[nH]c3n1)CC2 [Example 3]
39 | ≤ 50 | N[C@@H]1c2ccccc2CC12CCN(c1cnc3c(N4CCCc5nc(-c6ccn[nH]6)ccc54)n[nH]c3n1)CC2 [Example 4]
40 | ≤ 50 | NC1C2CC2CC12CCN(c1cnc3c(N4CCCc5ncccc54)n[nH]c3n1)CC2 (stereo not drawn) [Example 7, 1′-(3-(3,4-dihydro-1,5-naphthyridin-1(2H)-yl)-1H-pyrazolo[3,4-b]pyrazin-6-yl)spiro[bicyclo[3.1.0]hexane-3,4′-piperidin]-2-amine]
41 | ≤ 50 | Cc1nc(N2CCC3(CC2)Cc2ccccc2[C@H]3N)c(CO)nc1-c1cccc(Cl)c1Cl [Example 20, (S)-(3-(1-amino-1,3-dihydrospiro[indene-2,4′-piperidin]-1′-yl)-6-(2,3-dichlorophenyl)-5-methylpyrazin-2-yl)methanol]
42 | ≤ 50 | Nc1nc(N2CCC3(CC2)Cc2ccccc2[C@@H]3N)cnc1-c1cccc(Cl)c1Cl [Example 21, (3R)-1′-[6-amino-5-(2,3-dichlorophenyl)pyrazin-2-yl]-1,3-dihydrospiro[indene-2,4′-piperidin]-3-amine]
43 | ≤ 50 | Nc1nc(N2CCC3(CC2)Cc2ccccc2[C@H]3N)cnc1-c1cccc(Cl)c1Cl [Example 22, (3S)-1′-[6-amino-5-(2,3-dichlorophenyl)pyrazin-2-yl]-1,3-dihydrospiro[indene-2,4′-piperidin]-3-amine]
44 | ≤ 50 | N[C@H]1c2cccc(F)c2CC12CCN(c1cnc3cn[nH]c3n1)CC2 [Example 24]
45 | ≤ 50 | CN(C)C(=O)c1ccc2c(c1)[C@@H](N)C1(CCN(c3cnc4c(N5CCCc6ncccc65)n[nH]c4n3)CC1)C2 [Example 27]
46 | ≤ 50 | CN(C)C(=O)c1ccc2c(c1)[C@H](N)C1(CCN(c3cnc4c(N5CCCc6ncccc65)n[nH]c4n3)CC1)C2 [Example 28]
47 | ≤ 50 | CO[C@H]1C[C@@H](N2CCN(c3n[nH]c4nc(N5CCC6(CC5)Cc5ccccc5C6N)cnc34)c3ccc(C#N)cc32)C1 (stereo partly drawn) [Example 32]
48 | ≤ 50 | CO[C@H]1C[C@H](N2CCN(c3n[nH]c4nc(N5CCC6(CC5)Cc5ccccc5C6N)cnc34)c3ccc(C#N)cc32)C1 (stereo partly drawn) [Example 33]
49 | ≤ 50 | N#Cc1ccc2c(c1)N([C@H]1C[C@@H](O)C1)CCN2c1n[nH]c2nc(N3CCC4(CC3)Cc3ccccc3C4N)cnc12 (stereo partly drawn) [Example 34]
50 | ≤ 50 | N#Cc1ccc2c(c1)N([C@H]1C[C@H](O)C1)CCN2c1n[nH]c2nc(N3CCC4(CC3)Cc3ccccc3C4N)cnc12 (stereo partly drawn) [Example 35]
51 | ≤ 50 | N[C@@H]1c2ccccc2CC12CCN(c1cnc3c(N4CCCc5nc(-c6ncco6)ccc54)n[nH]c3n1)CC2 [Example 37]
52 | ≤ 50 | N#Cc1ccc2c(c1)N(C1(C#N)CC1)CCN2c1n[nH]c2nc(N3CCC4(CC3)Cc3ccccc3[C@H]4N)cnc12 [Example 39]
53 | ≤ 50 | CS(=O)(=O)c1cccc2c1CCCN2c1n[nH]c2nc(N3CCC4(CC3)Cc3ccc(F)cc3[C@H]4N)cnc12 [Example 41]
54 | ≤ 50 | Cn1cc(-c2ccc3c(n2)CCCN3c2n[nH]c3nc(N4CCC5(CC4)Cc4c(F)cccc4[C@H]5N)cnc23)cn1 [Example 42]
